What was measured:
human recombinant sEH = target: T1, human recombinant sEH (Homo sapiens, UniProt P34913); assay: Cell-free sEH activity assay (fluorescence-based, PHOME substrate); format: biochemical; settings: mean ± SEM, n = 3, benzoxazolone-ureas (Table 2); for sEH activity % of control at 1 μM / sEH activity % of control at 10 μM: residual activity; for IC50: cell-free assay
T1 construct: made in house; host or cells: Sf9 cells infected with recombinant baculovirus (from Dr. Bruce Hammock, UC Davis)
T1 sequence (P34913 1-555): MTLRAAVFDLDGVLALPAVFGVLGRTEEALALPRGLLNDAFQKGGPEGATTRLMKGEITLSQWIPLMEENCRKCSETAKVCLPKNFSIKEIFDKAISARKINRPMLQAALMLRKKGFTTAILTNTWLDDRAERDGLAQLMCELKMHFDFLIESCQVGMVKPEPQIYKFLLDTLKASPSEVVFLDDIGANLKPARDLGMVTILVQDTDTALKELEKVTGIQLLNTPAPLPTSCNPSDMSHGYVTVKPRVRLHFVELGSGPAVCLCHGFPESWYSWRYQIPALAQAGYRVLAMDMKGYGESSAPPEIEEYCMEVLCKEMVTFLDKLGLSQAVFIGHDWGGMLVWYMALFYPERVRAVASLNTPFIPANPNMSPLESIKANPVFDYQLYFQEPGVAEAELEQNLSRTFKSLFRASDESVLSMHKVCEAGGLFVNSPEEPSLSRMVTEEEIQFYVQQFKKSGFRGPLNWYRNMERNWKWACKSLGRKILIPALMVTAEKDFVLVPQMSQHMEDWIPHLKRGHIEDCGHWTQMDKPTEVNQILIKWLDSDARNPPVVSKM
Text: Inspired by the reported crystallographic screening studies,[12],[13],[15] a series of aryl amide (12, 15–21) or urea (31–39) derivatives with a benzoxazolone head group were synthesized and assessed for inhibition of human recombinant sEH in a cell-free activity assay[27] (Tables 1 and 2). […] Consequently, compounds in which the amide group is attached to the benzoxazolone ring through NH could outperform their direct reversed analogues by more favorable interactions in the central pocket of sEH. In addition, simple methylation of the benzoxazolone NH in 17–18 engendered noticeable differences in sEH inhibition relative to the unmethylated counterparts 15–16, implying that a free NH with H-bond donor property at this location is also important for the observed potency. Subsequently, the positioning of the amide group at the 5-position of the benzoxazolone ring also retained the inhibitory activity.
Human recombinant sEH was expressed and purified as published before.[31] Briefly, Sf9 cells were infected with a recombinant baculovirus (obtained from Dr. Bruce Hammock, University of California, Davis, CA). Following 72 h of transfection, the cells were centrifuged and then sonicated (3 × 10 s at 4 °C) in lysis buffer comprising glycerol (10%), NaHPO4 (50 mM, pH 8), leupeptin (10 μg/mL), NaCl (300 mM), phenylmethanesulfonyl fluoride (1 mM), EDTA (1 mM), and soybean trypsin inhibitor (60 μg/mL). After centrifugation at 100,000g (60 min, 4 °C), the obtained supernatants were subjected to a benzylthio-sepharose-affinity chromatography and eluted with 4-fluorochalcone oxide in PBS containing 1 mM DTT and 1 mM EDTA for purification of sEH. The enzyme was dialyzed and concentrated (Millipore Amicon-Ultra-15 centrifugal filter), and the solution was further assayed for total protein content by a protein detection kit (Bio-Rad Laboratories, Munich, Germany). The epoxide hydrolase activity was measured using a fluorescence-based assay, as reported before.[27] In brief, sEH was diluted in Tris buffer (25 mM, pH 7) containing BSA (0.1 mg/mL) to a suitable enzyme concentration and pretreated with test compounds or 0.1% DMSO as vehicle for 10 min at room temperature. To start the reaction, 50 μM of the PHOME substrate (3-phenyl-cyano(6-methoxy-2-naphthalenyl)methyl ester-2-oxiraneacetic acid), a nonfluorescent compound that is enzymatically converted by sEH into fluorescent 6-methoxy-naphtaldehyde, was added at RT. The reaction was stopped by addition of ZnSO4 (200 mM) after 60 min, and fluorescence was measured (λem 465 nm, λex 330 nm) by employing a NOVOstar microplate reader (BMG LABTECH GmbH, Ortenberg, Germany). If required, the potential fluorescence of test compounds was subtracted from the readout.

monocytes = assay: Cytotoxic activity in monocytes (MTT, metabolic activity after 24 h); format: cell-based, human; settings: metabolic activity (MTT) after 24 h, data not shown in main text (Figure S52)
Text: The benzyl group appears as a frequently recurring chemical fragment in the architecture of amide or urea-type sEH inhibitors.[4] Therefore, we extracted this common fragment and combined it with benzoxazolone using a urea backbone with the aim of improving a sEH inhibitory potency in the newly designed analogues (Table 2). […] This implies that voluminous substituents at this position are better accommodated at the binding site. […] Taken together, 2- or appropriate 2,4-disubstitution patterns govern potent sEH inhibition in this series. Overall, the preliminary SAR in this work indicated a new favorable structural feature at the right- and left-hand side of the compounds to achieve potent sEH inhibition. Another aspect of characterizing the compounds is determining their cytotoxic activity; for this purpose, we used monocytes due to their high expression of sEH. By applying 33 and 38 to monocytes and measuring the metabolic activity after 24 h, we could exclude cytotoxic activity up to concentrations of 1 μM (data not shown).
The cytotoxic activities of compounds were assessed as previously described.[29] […] The absorbance was determined at 570 nm using a Multiskan Spectrum microplate reader (Thermo Fisher Scientific, Schwerte, Germany). […]

| SMILES | sEH activity % of control at 1 μM (human recombinant sEH) | sEH activity % of control at 10 μM (human recombinant sEH) | IC50 (human recombinant sEH) | concentration up to which cytotoxic activity is excluded (monocytes) | melting point |
| --- | --- | --- | --- | --- | --- |
| O=C(NCc1ccccc1OC(F)(F)F)Nc1ccc2oc(=O)[nH]c2c1 [Compound 33, 3-(2-Oxo-2,3-dihydro-1,3-benzoxazol-5-yl)-1-{[2-(trifluoromethoxy)phenyl]methyl}urea] | 1.9 ± 3.2 % of control | 6.8 ± 5.9 % of control | 0.39 ± 0.1 nM | > 1 µM | – |
| O=C(NCc1ccc(Cl)cc1Cl)Nc1ccc2oc(=O)[nH]c2c1 [Compound 38, 1-[(2,4-Dichlorophenyl)methyl]-3-(2-oxo-2,3-dihydro-1,3-benzoxazol-5-yl)urea] | 0.0 ± 0.0 % of control | 0.0 ± 0.0 % of control | 0.7 ± 0.08 nM | > 1 µM | 260.9 °C (dec.) |

Reference: article PMC9850727, “Benzoxazolone-5-Urea Derivatives as Human Soluble Epoxide Hydrolase (sEH) Inhibitors” (ACS Omega, 2023)
